Data reported in US9850283B2, “Macrocyclic inhibitors of the PD-1/PD-L1 and CD80(B7-1)/PD-L1 protein/protein interactions” (BRISTOL-MYERS SQUIBB COMPANY, priority 2013, dated 2017).
Like-named read-outs stand apart in the source and are kept apart here. Positions of bridges follow the written chain, without caps; N, C: chain ends. Non-standard residues stand in square brackets, D forms with d. Residues, ends and D or L forms follow the SMILES beside them. ξ: configuration not given here. *: point of attachment. Tyr(3-Br) = N[C@@H](Cc1ccc(O)c(Br)c1)C(=O)O; Bip = N[C@@H](Cc1ccc(-c2ccccc2)cc1)C(=O)O; Phe(4-F) = N[C@@H](Cc1ccc(F)cc1)C(=O)O; Bta = N[C@@H](Cc1csc2ccccc12)C(=O)O; cisHyp = O=C(O)[C@@H]1C[C@H](O)CN1; Hyp = O=C(O)[C@@H]1C[C@@H](O)CN1; NMeF = CN[C@@H](Cc1ccccc1)C(=O)O; NMeNle = CCCC[C@H](NC)C(=O)O; NMeS = CN[C@@H](CO)C(=O)O; ξR = N=C(N)NCCCC(N)C(=O)O; NMeA = CN[C@@H](C)C(=O)O; Orn = NCCC[C@H](N)C(=O)O; Dab = NCC[C@H](N)C(=O)O; dAze = O=C(O)[C@H]1CCN1; Dap = NC[C@H](N)C(=O)O; ξP = O=C(O)C1CCCN1; Bn = c1ccc(C*)cc1; ξC = NC(CS)C(=O)O; ξS = NC(CO)C(=O)O; Sar = CNCC(=O)O

Experiments:
Human PD-L1/PD-1 = molecular target: T1, Human PD-L1/PD-1 (Homo sapiens, UniProt Q9NZQ7); assay: HTRF PD-1-Ig/PD-L1-His binding assay (human PD-L1); settings: cluster symbol; read-out: HTRF IC50 cluster
T1 construct: made in house; host or cells: HEK293T
Summary of the method: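 HTRF read-out: Eu cryptate anti-Ig mAb 1 nM final, APC anti-His mAb 20 nM final, added over the binding reaction. Proteins were PD-1-Ig and PD-L1-His ectodomain fusions. Buffer was dPBS, 0.1% BSA, 0.05% Tween-20.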

[1] = molecular target: T2, LK35.2-hPD-L1 cells / PE-labeled PD-1-Ig (Homo sapiens, UniProt Q9NZQ7); assay: LK35.2-hPD-L1 cell binding high-content screening assay; type: cell-based; settings: cluster symbol, read-out: CBA IC50 cluster
T2 construct: expressed in transfected cells; host or cells: LK35.2 mouse B cell line
Summary of the method: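 Mouse LK35.2 B cells stably overexpressing human PD-L1 were cultured overnight in RPMI with 10% FCS, then given compound and PE-labeled human PD-1-Ig (1 nM final) for 1 h at 37 °C. After three dPBS washes, bound fluorescence was quantified by high-content imaging.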

[2] = cell binding assay, cell line not given
[3] = cell line of CBA not given (LK35.2-hPD-L1 or 293T-hPD-L1)

T2 sequence (Q9NZQ7 19-290): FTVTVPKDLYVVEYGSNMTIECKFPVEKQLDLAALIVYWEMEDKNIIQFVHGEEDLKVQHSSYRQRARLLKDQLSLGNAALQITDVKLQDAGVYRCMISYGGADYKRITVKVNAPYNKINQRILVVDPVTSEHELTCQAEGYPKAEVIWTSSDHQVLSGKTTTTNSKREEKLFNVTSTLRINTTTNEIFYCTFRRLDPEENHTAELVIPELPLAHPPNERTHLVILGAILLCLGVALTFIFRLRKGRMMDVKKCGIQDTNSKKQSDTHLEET
T1 sequence (Q9NZQ7 with tags, fused parts or gaps): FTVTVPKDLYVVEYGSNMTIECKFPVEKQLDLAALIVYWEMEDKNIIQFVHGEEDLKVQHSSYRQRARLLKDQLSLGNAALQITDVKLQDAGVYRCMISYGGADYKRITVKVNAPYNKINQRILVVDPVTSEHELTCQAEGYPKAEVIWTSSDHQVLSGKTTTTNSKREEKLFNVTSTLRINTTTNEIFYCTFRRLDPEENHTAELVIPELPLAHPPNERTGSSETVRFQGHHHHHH

SMILES	IC50 (Human PD-L1/PD-1)	IC50 [1, 2]	IC50 [1, 3]
CCCC[C@H]1C(=O)N2CCC[C@@H]2C(=O)N[C@@H](CCN)C(=O)N[C@H](C(=O)NCC(N)=O)CSCC(=O)N[C@@H](Cc2ccc(O)c(Br)c2)C(=O)N(C)[C@@H](C)C(=O)N[C@@H](CC(N)=O)C(=O)N2CCC[C@H]2C(=O)N[C@@H](Cc2cnc[nH]2)C(=O)N[C@@H](CC(C)C)C(=O)N2C[C@H](O)C[C@H]2C(=O)N[C@@H](Cc2c[nH]c3ccccc23)C(=O)N[C@@H](CCN)C(=O)N[C@@H](Cc2c[nH]c3ccccc23)C(=O)N1C [Example 6044] ({CH2CO}-[Tyr(3-Br)][NMeA]NPHL[Hyp]W[Dab]W[NMeNle][dP][Dab]CG-NH2; thioether N-14)	6.76 to 30.3 nM	> 74.3 nM	–
CCCC[C@H]1C(=O)N(C)[C@@H](CCCC)C(=O)NC(CCCNC(=N)N)C(=O)NC(C(=O)NCC(N)=O)CSCC(=O)N[C@@H](Cc2ccccc2)C(=O)N(C)[C@@H](C)C(=O)N[C@@H](CC(N)=O)C(=O)N2CCCC2C(=O)N[C@@H](Cc2cnc[nH]2)C(=O)N[C@@H](CC(C)C)C(=O)N(C)CC(=O)N[C@@H](Cc2c[nH]c3ccccc23)C(=O)NC(CO)C(=O)N[C@@H](Cc2ccc(-c3ccccc3)cc2)C(=O)N1C (stereo partly shown) [Example 1028] ({CH2CO}-F[NMeA]N[ξP]HL[Sar]W[ξS][Bip][NMeNle][NMeNle][ξR][ξC]G-NH2; thioether N-14)	> 30.5 nM	–	> 74.3 nM
CCCC[C@H]1C(=O)N(C)CC(=O)N[C@@H](CC(=O)O)C(=O)N[C@@H](C(C)C)C(=O)N(C)[C@@H](Cc2ccccc2)C(=O)N[C@@H](Cc2ccc(O)cc2)C(=O)N(C)CC(=O)N[C@@H](Cc2c[nH]c3ccccc23)C(=O)N[C@@H](Cc2ccc(O)cc2)C(=O)N[C@@H](Cc2ccccc2)C(=O)N[C@H](C(=O)NCC(N)=O)CSCC(=O)N[C@@H](Cc2ccccc2)C(=O)N(C)[C@@H](Cc2ccccc2)C(=O)N1C [Example 3537] (HELM PEPTIDE1{[O=C(C[*:3])[*:2]].F.[meF].[CCCC[C@@H](C(=O)[*:2])N(C)[*:1]].[Sar].D.V.[meF].Y.[Sar].W.Y.F.C.G.[am]}$PEPTIDE1,PEPTIDE1,1:R3-14:R3$$$V2.0)	6.76 to 30.3 nM	4.78 to 72.9 nM	–
CCCC[C@H]1C(=O)N(C)[C@@H](CCCC)C(=O)N[C@@H](CCCNC(=N)N)C(=O)N[C@H](C(=O)NCC(N)=O)CSCC(=O)N[C@@H](Cc2ccc(O)cc2)C(=O)N(C)[C@@H](C)C(=O)N[C@@H](CCCN)C(=O)N2CCC[C@H]2C(=O)N[C@@H](C)C(=O)N[C@@H](CC(C)C)C(=O)N2C[C@@H](O)C[C@H]2C(=O)N[C@@H](Cc2c[nH]c3ccccc23)C(=O)N[C@@H](CO)C(=O)N[C@@H](Cc2c[nH]c3ccccc23)C(=O)N1C [Example 1146] ({CH2CO}-Y[NMeA][Orn]PAL[cisHyp]WSW[NMeNle][NMeNle]RCG-NH2; thioether N-14)	6.76 to 30.3 nM	–	> 74.3 nM
CCCC[C@H]1C(=O)N(C)[C@@H](CCCC)C(=O)N[C@@H](CCCN)C(=O)N[C@H](C(=O)NCC(N)=O)CSCC(=O)N[C@@H](Cc2ccc(O)cc2)C(=O)N2CCC[C@H]2C(=O)N[C@@H](CC(=O)O)C(=O)N2CCC[C@H]2C(=O)N[C@@H](CN)C(=O)N[C@@H](CC(C)C)C(=O)N2C[C@@H](O)C[C@H]2C(=O)N[C@@H](Cc2c[nH]c3ccccc23)C(=O)N[C@@H](CO)C(=O)N[C@@H](Cc2c[nH]c3ccccc23)C(=O)N1C [Example 1149] ({CH2CO}-YPDP[Dap]L[cisHyp]WSW[NMeNle][NMeNle][Orn]CG-NH2; thioether N-14)	6.76 to 30.3 nM	–	4.78 to 72.9 nM
CCCC[C@H]1C(=O)N(C)CC(=O)N[C@@H](CC(=O)O)C(=O)N[C@@H](C(C)C)C(=O)N(C)[C@@H](Cc2ccccc2)C(=O)N[C@@H](Cc2ccc(O)cc2)C(=O)N(C)CC(=O)N[C@@H](Cc2c[nH]c3ccccc23)C(=O)N[C@@H](Cc2ccc(O)cc2)C(=O)N[C@@H](Cc2c[nH]cn2)C(=O)N[C@H](C(=O)NCC(N)=O)CSCC(=O)N[C@@H](Cc2ccccc2)C(=O)N(C)[C@@H](Cc2ccccc2)C(=O)N1C [Example 3165] (HELM PEPTIDE1{[O=C(C[*:3])[*:2]].F.[meF].[CCCC[C@@H](C(=O)[*:2])N(C)[*:1]].[Sar].D.V.[meF].Y.[Sar].W.Y.H.C.G.[am]}$PEPTIDE1,PEPTIDE1,1:R3-14:R3$$$V2.0)	6.76 to 30.3 nM	–	4.78 to 72.9 nM

Other lines, results leading:

IC50 (Human PD-L1/PD-1)	IC50 [1, 2]	IC50 [1, 3]	SMILES
6.76 to 30.3 nM	4.78 to 72.9 nM	–	CCCC[C@H]1C(=O)N2CC[C@@H]2C(=O)N[C@@H](CC(=O)O)C(=O)N[C@@H](C(C)C)C(=O)N(C)[C@@H](Cc2ccccc2)C(=O)N[C@@H](Cc2ccc(O)cc2)C(=O)N(C)CC(=O)N[C@@H](Cc2c[nH]c3ccccc23)C(=O)N[C@@H](Cc2ccc(O)cc2)C(=O)N[C@@H](CC(C)C)C(=O)N[C@H](C(=O)NCC(N)=O)CSCC(=O)N[C@@H](Cc2ccccc2)C(=O)N(C)[C@@H](Cc2ccccc2)C(=O)N1C [Example 3582] ({CH2CO}-F[NMeF][NMeNle][dAze]DV[NMeF]Y[Sar]WYLCG-NH2; thioether N-13)
6.76 to 30.3 nM	0.158 to 4.71 nM	–	CCCC[C@H]1C(=O)N(C)CC(=O)N[C@@H](CC(=O)O)C(=O)N[C@@H](C(C)C)C(=O)N(C)[C@@H](Cc2ccccc2)C(=O)N[C@@H](Cc2ccc(O)cc2)C(=O)N(C)CC(=O)N[C@@H](Cc2c[nH]c3ccccc23)C(=O)N[C@@H](Cc2ccc(O)cc2)C(=O)N[C@@H](CC(C)C)C(=O)N[C@H](C(=O)NCC(N)=O)CSCC(=O)N[C@@H](Cc2ccc(F)cc2)C(=O)N(C)[C@@H](Cc2ccccc2)C(=O)N1C [Example 3520] ({CH2CO}-[Phe(4-F)][NMeF][NMeNle][Sar]DV[NMeF]Y[Sar]WYLCG-NH2; thioether N-13)
0.385 to 6.74 nM	0.158 to 4.71 nM	–	CCCC[C@H]1C(=O)N(C)[C@@H](COCC)C(=O)N[C@@H](CCCNC(=N)N)C(=O)NC(C(=O)NCC(N)=O)CSCC(=O)N[C@@H](Cc2ccc(O)cc2)C(=O)N(C)[C@@H](C)C(=O)N[C@@H](CC(N)=O)C(=O)N2CCC[C@H]2C(=O)N[C@@H](Cc2cnc[nH]2)C(=O)N[C@@H](CC(C)C)C(=O)N2CCC[C@H]2C(=O)N[C@@H](Cc2c[nH]c3ccccc23)C(=O)N[C@@H](CO)C(=O)N[C@@H](Cc2c[nH]c3ccccc23)C(=O)N1C (stereo partly shown) [Example 9041] ({CH2CO}-Y[NMeA]NPHLPWSW[NMeNle][NMeS](Et)R[ξC]G-NH2; thioether N-14)
6.76 to 30.3 nM	–	0.158 to 4.71 nM	CCCC[C@H]1C(=O)N(C)[C@@H](CCCC)C(=O)N[C@@H](CCCNC(=N)N)C(=O)N[C@H](C(=O)NCC(N)=O)CSCC(=O)N[C@@H](Cc2ccc(O)cc2)C(=O)N(C)[C@@H](C)C(=O)N[C@@H](CC(N)=O)C(=O)N2CCC[C@H]2C(=O)N[C@@H](CN)C(=O)N[C@@H](CC(C)C)C(=O)N2C[C@H](O)C[C@H]2C(=O)N[C@@H](Cc2c[nH]c3ccccc23)C(=O)N[C@@H](CO)C(=O)N[C@@H](Cc2csc3ccccc23)C(=O)N1C [Example 1118] ({CH2CO}-Y[NMeA]NP[Dap]L[Hyp]WS[Bta][NMeNle][NMeNle]RCG-NH2; thioether N-14)
0.385 to 6.74 nM	0.158 to 4.71 nM	–	CCCC[C@H]1C(=O)N(C)[C@@H](CCCC)C(=O)N[C@@H](CCC(=O)O)C(=O)N[C@H](C(=O)NCC(N)=O)CSCC(=O)N[C@@H](Cc2ccc(O)cc2)C(=O)N(C)[C@@H](C)C(=O)N[C@@H](CC(=O)O)C(=O)N2CCC[C@H]2C(=O)N[C@@H](Cc2c[nH]cn2)C(=O)N[C@@H](CCCCN)C(=O)N2C[C@H](OCc3ccccc3)C[C@H]2C(=O)N[C@@H](Cc2c[nH]c3ccccc23)C(=O)N[C@@H](CCCCN)C(=O)N[C@@H](Cc2c[nH]c3ccccc23)C(=O)N1C [Example 14004] ({CH2CO}-Y[NMeA]DPHK[Hyp](Bn)WKW[NMeNle][NMeNle]ECG-NH2; thioether N-14)
